Laboratory results: patent US20260374739A1, “SMALL MOLECULAR WEIGHT CHEMICAL COMPOUND TO ANTAGONIZE EPH-EPHRIN TETRAMERIZATION AND INHIBIT BIDIRECTIONAL SIGNALING” (THE BOARD OF REGENTS OF THE UNIVERSITY OF TEXAS SYSTEM, priority 2022, published 2026)
Values joined by “and” are separate entries in the source; they are usually repeats but may differ in a detail not shown here. Identical values can stand only once. “Also recorded” adds a separate entry of the source. Marks after values point to notes of the source that are not given here.

Experiments:
EphrinB2-EphB2 [1] = molecular target: T1, EphrinB2-EphB2 (Homo sapiens, UniProt P29323); experiment: Octet tetramerization inhibition, immobilized human EphrinB2 binding to 50 nM soluble human EphB2
T1 construct: soluble human EphB1-His, EphB2-His, and EphB4-His ectodomains; commercially available human EphrinB1-Fc (EB1), EphrinB2-Fc (EB2), and EphrinB3-Fc (EB3) ectodomain proteins; purchased
T1 sequence (P29323 19-543 limits assumed): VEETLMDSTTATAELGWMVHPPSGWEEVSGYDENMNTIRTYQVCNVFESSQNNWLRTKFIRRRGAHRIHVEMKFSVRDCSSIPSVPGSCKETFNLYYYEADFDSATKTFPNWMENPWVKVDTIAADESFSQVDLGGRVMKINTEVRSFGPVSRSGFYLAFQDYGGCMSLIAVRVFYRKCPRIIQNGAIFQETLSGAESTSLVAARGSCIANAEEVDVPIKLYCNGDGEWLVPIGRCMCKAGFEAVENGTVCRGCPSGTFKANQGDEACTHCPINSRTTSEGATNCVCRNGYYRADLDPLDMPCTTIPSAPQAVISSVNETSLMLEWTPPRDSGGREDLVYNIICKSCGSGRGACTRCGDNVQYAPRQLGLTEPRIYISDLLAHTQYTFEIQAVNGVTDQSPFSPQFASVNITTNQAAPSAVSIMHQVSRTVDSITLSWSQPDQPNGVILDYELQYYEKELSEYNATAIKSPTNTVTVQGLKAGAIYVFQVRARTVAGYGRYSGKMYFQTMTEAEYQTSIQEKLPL

EphrinB2-EphB2 [2] = molecular target: T1, EphrinB2-EphB2; experiment: Octet 80 sec association/500 sec dissociation, immobilized human EphrinB2-Fc binding to soluble human EphB2-His; details: immobilized human EphrinB2, 25 nM soluble human EphB2; for EphB2 Inhibition Percent, Inhibition of Association ONLY: at 3.2 μM and 80 seconds; for EphB2 Inhibition Percent, Inhibition of Association-Dissociation: at 3.2 μM and 580 seconds
How it was run: (§1)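 EphrinB2-Fc captured on AHC biosensors, then soluble His-tagged EphB ectodomain (25 nM for % inhibition runs) associated 80 s and dissociated 500 s in PBS, 0.05% Tween-20, 1% DMSO ± compound. Compounds tested at 0.1–3.2 μM with a 10 μM max standard; IC50 from AUC of full traces or at 75 s and 135 s.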

EphrinB2-EphB4 = molecular target: T2, EphrinB2-EphB4 (Homo sapiens, UniProt P54760); experiment: Octet 80 sec association/500 sec dissociation, immobilized human EphrinB2-Fc binding to soluble human EphB4-His; details: for EphB4 Inhibition Percent, Inhibition of Association ONLY: at 3.2 μM and 80 seconds; for EphB4 Inhibition Percent, Inhibition of Association ONLY / EphB4 Inhibition Percent, Inhibition of Association-Dissociation: immobilized human EphrinB2, 25 nM soluble human EphB4; for EphB4 Inhibition Percent, Inhibition of Association-Dissociation: at 3.2 μM and 580 seconds
T2 construct: soluble human EphB1-His, EphB2-His, and EphB4-His ectodomains; commercially available human EphrinB1-Fc (EB1), EphrinB2-Fc (EB2), and EphrinB3-Fc (EB3) ectodomain proteins; purchased
T2 sequence (P54760 16-539 limits assumed): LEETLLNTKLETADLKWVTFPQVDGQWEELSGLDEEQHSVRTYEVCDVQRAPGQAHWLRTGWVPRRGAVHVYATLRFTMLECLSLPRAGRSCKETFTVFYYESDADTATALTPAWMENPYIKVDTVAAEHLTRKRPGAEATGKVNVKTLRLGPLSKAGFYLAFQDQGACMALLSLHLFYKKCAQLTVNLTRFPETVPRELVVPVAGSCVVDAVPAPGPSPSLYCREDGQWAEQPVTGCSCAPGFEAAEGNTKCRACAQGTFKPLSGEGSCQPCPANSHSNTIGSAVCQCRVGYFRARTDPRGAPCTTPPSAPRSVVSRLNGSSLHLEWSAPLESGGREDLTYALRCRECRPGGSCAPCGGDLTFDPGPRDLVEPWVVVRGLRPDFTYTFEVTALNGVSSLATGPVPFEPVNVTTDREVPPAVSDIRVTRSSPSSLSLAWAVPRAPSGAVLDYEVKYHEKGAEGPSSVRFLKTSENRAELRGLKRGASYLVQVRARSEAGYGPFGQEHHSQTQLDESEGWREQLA
How it was run: as §1

EphrinB2-EphB1 = molecular target: T3, EphrinB2-EphB1 (Homo sapiens, UniProt P54762); experiment: Octet 80 sec association/500 sec dissociation, immobilized human EphrinB2-Fc binding to soluble human EphB1-His; details: immobilized human EphrinB2, 25 nM soluble human EphB1; for EphB1 Inhibition Percent, Inhibition of Association ONLY: at 3.2 μM and 80 seconds; for EphB1 Inhibition Percent, Inhibition of Association-Dissociation: at 3.2 μM and 580 seconds
T3 construct: soluble human EphB1-His, EphB2-His, and EphB4-His ectodomains; commercially available human EphrinB1-Fc (EB1), EphrinB2-Fc (EB2), and EphrinB3-Fc (EB3) ectodomain proteins; purchased
T3 sequence (P54762 18-540 limits assumed): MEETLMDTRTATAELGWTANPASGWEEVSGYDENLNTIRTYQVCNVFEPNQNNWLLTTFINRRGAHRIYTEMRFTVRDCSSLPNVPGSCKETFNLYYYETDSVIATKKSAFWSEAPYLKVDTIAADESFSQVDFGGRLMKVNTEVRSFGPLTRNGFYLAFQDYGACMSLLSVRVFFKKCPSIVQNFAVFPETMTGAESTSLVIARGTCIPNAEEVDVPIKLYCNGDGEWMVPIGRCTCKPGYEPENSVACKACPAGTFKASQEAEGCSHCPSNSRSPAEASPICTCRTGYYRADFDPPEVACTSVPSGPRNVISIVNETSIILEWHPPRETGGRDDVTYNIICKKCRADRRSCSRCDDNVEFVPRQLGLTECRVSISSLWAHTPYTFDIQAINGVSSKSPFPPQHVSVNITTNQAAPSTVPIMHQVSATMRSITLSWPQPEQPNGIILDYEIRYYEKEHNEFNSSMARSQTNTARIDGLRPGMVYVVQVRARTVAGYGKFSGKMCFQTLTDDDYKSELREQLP
How it was run: as §1

[3] = Absolute Association IC50 (300 sec), Table A, EphrinB2-EphB2
[4] = Absolute Dissociation IC50 (450 sec), Table A, EphrinB2-EphB2
[5] = Relative AUC/IC50, Table A, EphrinB2-EphB2, compound 7: association only
[6] = Relative Association IC50 (300 sec), Table A, EphrinB2-EphB2
[7] = Absolute AUC/IC50, Table A, EphrinB2-EphB2
[8] = Relative Dissociation IC50 (450 sec), Table A, EphrinB2-EphB2
[9] = tetramerization inhibitor IC50 (relative), association step, surmountable tetramer

Structure (SMILES) | IC50 (EphrinB2-EphB2 [1]; [3]) | IC50 (EphrinB2-EphB2 [1]; [4]) | IC50 (EphrinB2-EphB2 [1]; [5]) | IC50 (EphrinB2-EphB2 [1]; [6]) | EphB2 Inhibition Percent, Inhibition of Association ONLY (EphrinB2-EphB2 [2]) | EphB2 Inhibition Percent, Inhibition of Association-Dissociation (EphrinB2-EphB2 [2]) | EphB4 Inhibition Percent, Inhibition of Association ONLY (EphrinB2-EphB4) | EphB4 Inhibition Percent, Inhibition of Association-Dissociation (EphrinB2-EphB4) | EphB1 Inhibition Percent, Inhibition of Association ONLY (EphrinB2-EphB1) | EphB1 Inhibition Percent, Inhibition of Association-Dissociation (EphrinB2-EphB1) | IC50 (EphrinB2-EphB2 [1]; [7]) | IC50 (EphrinB2-EphB2 [1]; [8]) | IC50 (EphrinB2-EphB2 [1]; [9]) | selectivity among EphrinB2-EphB1/B2/B4 (EphrinB2-EphB4; 3.2 μM) | tetramerization inhibitor activity (EphrinB2-EphB2 [1]) | disruption of unsurmountable tetramer (EphrinB2-EphB2 [1]; 0.8-3.2 μM, listed as A19-L)
Oc1ccc(CN2CCN(c3ccc(Br)cn3)CC2)c2cccnc12 [Compound 34, 5-((4-(5-bromopyridin-2-yl)piperazin-1-ium-1-yl)methyl)-8-hydroxyquinolin-1-ium chloride] | 2820 nM | 2630 nM | 1700 nM | 2090 nM | 69.4% | 81.6% | 20.9% | 36.9% | 46.4% | 58.6% |  |  |  |  |  | 
O=[N+]([O-])c1ccc(N2CCN(Cc3ccc(O)c4ncccc34)CC2)cc1 [Compound 38, 8-hydroxy-5-((4-(4-nitrophenyl)piperazin-1-ium-1-yl)methyl)quinolin-1-ium chloride] | 2290 nM | 1860 nM | 1200 nM | 1230 nM | 54.3% | 72.1% | 9.6% | 17.5% | 24.8% | 43.2% | 2180 nM | 1470 nM |  |  |  | 
Nc1ccc(N2CCN(Cc3ccc(O)c4ncccc34)CC2)cc1 [Compound 39, 5-((4-(4-aminophenyl)piperazin-1-yl)methyl)quinolin-8-ol] | 3020 nM | 2830 nM | 1700 nM | 2750 nM | 33.9% and 31.2% | 46.4% and 45.6% | 0.4% and 0% | 6.9% and 5.5% |  | 16.9% and 8.0% | 3090 nM | 2250 nM | ~2000 nM | less action toward EphB4 and EphB1 but high specificity for EphB2 |  | 
Oc1c(Br)cc(CN2CCN(Cc3ccc(Br)cc3)CC2)c2cccnc12 [Compound 45, 7-bromo-5-((4-(4-bromobenzyl)piperazin-1-ium-1-yl)methyl)-8-hydroxyquinolin-1-ium chloride] | 790 nM | 720 nM |  | 560 nM | 62.1% | 77.1% | 4.9% | 28.3% | 37.3% | 49.9% | 760 nM | 590 nM |  |  |  | 
Oc1c(I)cc(CN2CCN(Cc3ccc(Br)cc3)CC2)c2cccnc12 [Compound 46, 5-((4-(4-bromobenzyl)piperazin-1-yl)methyl)-7-iodoquinolin-8-ol] | 720 nM | 690 nM | 520 nM | 480 nM | 53.0% | 69.6% | 18.1% | 32.0% | 51.6% | 57.2% | 630 nM | 510 nM |  |  | exhibit strong IC50 values | 
O=C(c1ccc(O)c2ncccc12)N1CCOCC1 [Compound 53, (8-hydroxyquinolin-5-yl)(morpholino)methanone] | 3020 nM | 2340 nM | 1860 nM | 1950 nM |  | 65.3% and 40.6% |  | 16.8% and 12.5% |  | 38.7% and 26.3% | 2820 nM | 1620 nM | ~1600 nM |  |  | slight ability to disrupt the unsurmountable tetramer; also recorded: able to inhibit a small amount of the EphrinB2-EphB2 unsurmountable tetramer
Cc1ccc2c(CN3CCOCC3)cc(Br)c(O)c2n1 [Compound 57, 7-bromo-2-methyl-5-(morpholinomethyl)quinolin-8-ol] | > 3200 nM | > 3200 nM | 2240 nM | > 3200 nM | 1.4% | 20.3% | 0*% | 8.7% | 0*% | 15.3% | > 3200 nM | > 3200 nM | > 3000 nM |  |  | 
